From US20140057915A1, “KINASE INHIBITORS” (TOPIVERT PHARMA LIMITED, priority 2012, published 2014)

Legend:
IL-8 release, PBMCs = experiment: LPS-induced IL-8 release in PBMC cells; assay type: cell-based; conditions: Homo sapiens, LPS stimulated, read-out: IC50 Values for Inhibition of Cytokine Release, PBMCs, IL-8
Description: (b) LPS-Induced TNFα/IL-8 Release in PBMC Cells
Peripheral blood mononuclear cells (PBMCs) from healthy subjects are separated from whole blood using a density gradient (Lymphoprep, Axis-Shield Healthcare). The PBMCs are seeded in 96 well plates and treated with compounds at the desired concentration for 2 hours before addition of 1 ng/ml LPS (Escherichia Coli 0111:B4 from Sigma Aldrich) for 24 hours under normal tissue culture conditions (37° C., 5% CO2). The supernatant is harvested for determination of […] concentrations by sandwich ELISA (Duo-set, R&D systems) and read on the fluorescence microplate reader (Varioskan® Flash, ThermoFisher Scientific).

GSK3α [1] = biological target: T1, GSK3α (Homo sapiens, UniProt P49840); experiment: GSK 3α enzyme inhibition (FRET), Method 2; assay type: biochemical; conditions: Table 4a2, different laboratory
T1 sequence (P49840 whole entry): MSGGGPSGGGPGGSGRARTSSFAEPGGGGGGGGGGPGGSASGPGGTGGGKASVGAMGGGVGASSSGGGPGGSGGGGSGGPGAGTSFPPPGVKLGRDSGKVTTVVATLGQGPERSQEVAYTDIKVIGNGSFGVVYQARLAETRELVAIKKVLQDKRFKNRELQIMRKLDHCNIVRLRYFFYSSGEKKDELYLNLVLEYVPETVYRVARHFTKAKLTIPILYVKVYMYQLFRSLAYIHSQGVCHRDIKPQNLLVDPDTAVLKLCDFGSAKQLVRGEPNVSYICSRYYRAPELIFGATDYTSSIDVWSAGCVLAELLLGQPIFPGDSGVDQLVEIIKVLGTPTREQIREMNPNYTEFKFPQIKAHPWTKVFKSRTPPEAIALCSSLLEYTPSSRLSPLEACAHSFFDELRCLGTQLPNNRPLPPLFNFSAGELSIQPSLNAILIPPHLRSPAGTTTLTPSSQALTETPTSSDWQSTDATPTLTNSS

[2] = tested on: ICAM-1 expression, BEAS2B cells; experiment: Poly I:C-induced ICAM-1 expression in BEAS2B cells; assay type: cell-based; conditions: Homo sapiens, BEAS-2B; read-out: Poly IC induced ICAM1 in BEAS2B, IC50
Procedure, shortened: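 Cell-based ELISA for surface ICAM-1 in human BEAS2B cells 18 h after transfection with the RNA-virus mimic poly I:C (1 μg/mL, with Oligofectamine), compounds added 2 h beforehand. OD450–655 divided by Crystal Violet OD595 per well; percent inhibition relative to vehicle.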

[3] = tested on: TNFα release, d-U937 cells; experiment: LPS-induced TNFα release in d-U937 cells; assay type: cell-based; conditions: Homo sapiens, dU937; relative to 10 μg/mL BIRB796; Table 4c1; read-out: LPS Induced Release of Cytokine in d-U937 Cells, TNFα REC50
Procedure, shortened: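 Sandwich ELISA quantifies cytokine in supernatants after 4 hr LPS challenge (0.1 μg/mL) of PMA-differentiated (100 ng/mL, 48–72 hr) U937 macrophages given compound 2 hr beforehand. REC50 derived from concentration-response curve, inhibition calculated relative to vehicle.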

Syk = Syk (Homo sapiens, UniProt P43405); experiment: Syk enzyme inhibition (FRET); assay type: biochemical; conditions: Table 4a1
Procedure, shortened: (§1)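 2 hr RT enzyme + cpd (added solns 4/0.4/0.04/0.004 μg/mL); + FRET peptide (8 μM soln) + ATP soln (c-Src 800 μM, Syk 60 μM), 1 hr; protease development 1 hr; read donor/acceptor emission ratio.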

cSrc = cSrc (Homo sapiens, UniProt P12931); experiment: c-Src enzyme inhibition (FRET); assay type: biochemical; conditions: Table 4a1
cSrc, sequence (P12931 whole entry): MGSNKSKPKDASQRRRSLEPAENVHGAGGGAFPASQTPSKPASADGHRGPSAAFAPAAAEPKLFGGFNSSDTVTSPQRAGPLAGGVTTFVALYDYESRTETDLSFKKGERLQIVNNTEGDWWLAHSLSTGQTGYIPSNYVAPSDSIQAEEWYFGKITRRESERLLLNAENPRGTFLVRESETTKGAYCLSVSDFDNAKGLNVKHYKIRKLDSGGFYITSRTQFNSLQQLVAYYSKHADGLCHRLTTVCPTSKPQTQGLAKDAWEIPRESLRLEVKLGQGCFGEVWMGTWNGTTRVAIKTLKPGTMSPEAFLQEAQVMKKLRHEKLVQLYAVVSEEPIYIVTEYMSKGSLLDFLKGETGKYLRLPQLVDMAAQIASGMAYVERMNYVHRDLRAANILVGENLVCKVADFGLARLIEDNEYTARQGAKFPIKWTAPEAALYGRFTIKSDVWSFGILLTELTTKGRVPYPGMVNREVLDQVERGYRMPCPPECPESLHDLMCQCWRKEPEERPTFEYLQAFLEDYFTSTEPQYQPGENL
Procedure, shortened: as §1

d-U937 cells = experiment: Cell viability: MTT assay; assay type: cell-based, human; conditions: 1 μg/mL
Procedure, shortened: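 MTT reduction (1 h, DMSO solubilisation, A550) measured after compound treatment at 1 or 10 μg/mL of differentiated U937 cells for 4 h (5% FCS RPMI1640) or 24 h (10% FCS). Percentage viability loss computed relative to 0.5% DMSO vehicle, with increases tabulated as negative values.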

[4] = tested on: IL-8 release, d-U937 cells; experiment: LPS-induced IL-8 release in d-U937 cells; assay type: cell-based; conditions: Homo sapiens, dU937; Table 4c1; read-out: LPS Induced Release of Cytokine in d-U937 Cells, IL-8 IC50
Procedure, shortened: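 IL-8 release after a 4 hr challenge with LPS (0.1 μg/mL, E. coli 0111:B4) following a 2 hr compound pretreatment. Cells were human U937 monocytes differentiated to macrophage-type with PMA 100 ng/mL for 48–72 hr. Relative 50% effective concentration derived from concentration–response data.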

GSK3α [5] = biological target: T1, GSK3α; experiment: GSK 3α enzyme inhibition (FRET), Method 1; assay type: biochemical; conditions: Table 4a1
Procedure, shortened: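 GSK3α was preincubated with test compound for 2 hr at RT, then a FRET peptide substrate and ATP were added for 1 hr. Protease development for 1 hr cleaved only non-phosphorylated peptide, and phosphorylation was read as the coumarin/fluorescein emission ratio. Concentrations given are those of the added solutions: enzyme 500 ng/mL, peptide 8 μM, ATP 40 μM.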

C#Cc1cc(Nc2nccc(Oc3ccc(NC(=O)Nc4cc(C(C)C)nn4-c4ccc(C)cc4)c(Cl)c3Cl)n2)cc(C(N)=O)c1 [Example 89, 3-((4-(2,3-Dichloro-4-(3-(3-isopropyl-1-(p-tolyl)-1H-pyrazol-5-yl)ureido)-phenoxy)pyrimidin-2-yl)amino)-5-ethynylbenzamide]
IC50 (IL-8 release, PBMCs): 14.6 nM | IC50 (GSK3α [1]): ≥ 15300 nM

C#Cc1cc(Nc2nccc(Oc3ccc(NC(=O)Nc4cc(C(F)(F)C(F)(F)F)nn4-c4ccc(C)cc4)c4ccccc34)n2)cc(C(=O)NCCN2CCOCC2)c1 [Example 74, 3-Ethynyl-N-(2-morpholinoethyl)-5-((4-((4-(3-(3-(perfluoroethyl)-1-(p-tolyl)-1H-pyrazol-5-yl)ureido)naphthalen-1-yl)oxy)pyrimidin-2-yl)amino)benzamide]
IC50 (IL-8 release, PBMCs): 4.1 nM | IC50 (GSK3α [1]): ≥ 12100 nM

C#Cc1cc(Nc2nccc(Oc3ccc(NC(=O)Nc4cc(C(C)C)nn4-c4ccc(C)cc4)c(F)c3F)n2)cc(C(=O)NCCN2CCOCC2)c1 [Example 88, 3-((4-(2,3-Difluoro-4-(3-(3-isopropyl-1-(p-tolyl)-1H-pyrazol-5-yl)ureido)-phenoxy)pyrimidin-2-yl)amino)-5-ethynyl-N-(2-morpholinoethyl)benzamide]
IC50 (IL-8 release, PBMCs): 13.1 nM | IC50 (GSK3α [1]): 172 nM

C#Cc1cc(Nc2nccc(Oc3ccc(NC(=O)Nc4cc(C(C)(C)C)nn4-c4ccc(OC)nc4)c4ccccc34)n2)cc(C(=O)NCCN2CCOCC2)c1 [Example 73, 3-((4-((4-(3-(3-(tert-Butyl)-1-(6-methoxypyridin-3-yl)-1H-pyrazol-5-yl)ureido)naphthalen-1-yl)oxy)pyrimidin-2-yl)amino)-5-ethynyl-N-(2-morpholinoethyl)benzamide]
IC50 (IL-8 release, PBMCs): 0.5 nM | IC50 (GSK3α [1]): 402 nM

COc1cc(C(=O)NCCO)ccc1Nc1nccc(Oc2ccc(NC(=O)Nc3cc(C(C)(C)C)nn3-c3ccc(C)cc3)c3ccccc23)n1 [Example 4, 4-((4-((4-(3-(3-(tert-Butyl)-1-(p-tolyl)-1H-pyrazol-5-yl)ureido)naphthalen-1-yl)oxy)pyrimidin-2-yl)amino)-N-(2-hydroxyethyl)-3-methoxybenzamide]
IC50 [2]: 4.6 nM | EC50 [3]: 0.7 nM | IC50 (Syk): 124 nM | IC50 (cSrc): 49 nM | Cell viability at time point in d-U937 cells, 4 h (d-U937 cells): −ve (−ve and +ve indicate that the value is below and above respectively, the no significant effect threshold, defined as 30% inhibition at 1 μg/mL at the time point indicated) | Cell viability at time point in d-U937 cells, 24 h (d-U937 cells): −ve (−ve and +ve indicate that the value is below and above respectively, the no significant effect threshold, defined as 30% inhibition at 1 μg/mL at the time point indicated) | IC50 [4]: 6.6 nM | IC50 (GSK3α [5]): > 14300 nM

Cc1ccc(-n2nc(C(C)(C)C)cc2NC(=O)Nc2ccc(Oc3ccnc(Nc4cccc(C(=O)NCCN5CCOCC5)c4)n3)c3ccccc23)cc1 [Example 3, 3-((4-((4-(3-(3-(tert-Butyl)-1-(p-tolyl)-1H-pyrazol-5-yl)ureido)naphthalen-1-yl)oxy)pyrimidin-2-yl)amino)-N-(2-morpholinoethyl)benzamide]
IC50 [2]: 0.7 nM | EC50 [3]: 0.6 nM | IC50 (Syk): 11 nM | IC50 (cSrc): 1 nM | Cell viability at time point in d-U937 cells, 4 h (d-U937 cells): −ve (−ve and +ve indicate that the value is below and above respectively, the no significant effect threshold, defined as 30% inhibition at 1 μg/mL at the time point indicated) | Cell viability at time point in d-U937 cells, 24 h (d-U937 cells): −ve (−ve and +ve indicate that the value is below and above respectively, the no significant effect threshold, defined as 30% inhibition at 1 μg/mL at the time point indicated) | IC50 [4]: 1.6 nM | IC50 (GSK3α [5]): 286 nM

COc1ccc(-n2nc(C(C)(C)C)cc2NC(=O)Nc2ccc(Oc3ccnc(Nc4cccc(C(=O)NCCN5CCOCC5)c4)n3)c3ccccc23)cc1 [Example 21, 3-((4-((4-(3-(3-(tert-butyl)-1-(4-methoxyphenyl)-1H-pyrazol-5-yl)ureido)naphthalen-1-yl)oxy)pyrimidin-2-yl)amino)-N-(2-morpholinoethyl)benzamide]
IC50 [2]: 0.8 nM | EC50 [3]: 1.3 nM | IC50 (Syk): 14 nM | IC50 (cSrc): 5 nM | Cell viability at time point in d-U937 cells, 4 h (d-U937 cells): −ve (−ve and +ve indicate that the value is below and above respectively, the no significant effect threshold, defined as 30% inhibition at 1 μg/mL at the time point indicated) | Cell viability at time point in d-U937 cells, 24 h (d-U937 cells): −ve (−ve and +ve indicate that the value is below and above respectively, the no significant effect threshold, defined as 30% inhibition at 1 μg/mL at the time point indicated) | IC50 [4]: 1.9 nM | IC50 (GSK3α [5]): 356 nM

COc1ccc(C(=O)NCCO)cc1Nc1nccc(Oc2ccc(NC(=O)Nc3cc(C(C)(C)C)nn3-c3ccc(C)cc3)c3ccccc23)n1 [Example 33, 3-((4-((4-(3-(3-(tert-butyl)-1-(p-tolyl)-1H-pyrazol-5-yl)ureido)naphthalen-1-yl)oxy)pyrimidin-2-yl)amino)-N-(2-hydroxyethyl)-4-methoxybenzamide]
IC50 [2]: 143 nM | EC50 [3]: 1.5 nM | IC50 (Syk): 98 nM | IC50 (cSrc): 3 nM | Cell viability at time point in d-U937 cells, 4 h (d-U937 cells): −ve (−ve and +ve indicate that the value is below and above respectively, the no significant effect threshold, defined as 30% inhibition at 1 μg/mL at the time point indicated) | Cell viability at time point in d-U937 cells, 24 h (d-U937 cells): −ve (−ve and +ve indicate that the value is below and above respectively, the no significant effect threshold, defined as 30% inhibition at 1 μg/mL at the time point indicated) | IC50 [4]: 4.2 nM | IC50 (GSK3α [5]): > 14300 nM

COc1ccc(-n2nc(C(C)C)cc2NC(=O)Nc2ccc(Oc3cc(Nc4cc(OC)cc(C(=O)NCCN5CCOCC5)c4)ncn3)c3ccccc23)cc1 [Example 14, 3-((6-((4-(3-(3-isopropyl-1-(4-methoxyphenyl)-1H-pyrazol-5-yl)ureido)naphthalen-1-yl)oxy)pyrimidin-4-yl)amino)-5-methoxy-N-(2-morpholinoethyl)benzamide]
IC50 [2]: 3 nM | EC50 [3]: 1.2 nM | IC50 (Syk): > 1300 nM | IC50 (cSrc): 4 nM | Cell viability at time point in d-U937 cells, 4 h (d-U937 cells): −ve (−ve and +ve indicate that the value is below and above respectively, the no significant effect threshold, defined as 30% inhibition at 1 μg/mL at the time point indicated) | Cell viability at time point in d-U937 cells, 24 h (d-U937 cells): +ve (−ve and +ve indicate that the value is below and above respectively, the no significant effect threshold, defined as 30% inhibition at 1 μg/mL at the time point indicated) | IC50 [4]: 5 nM | IC50 (GSK3α [5]): 355 nM

COc1ccc(C(=O)NCCO)cc1Nc1nccc(Oc2ccc(NC(=O)Nc3cc(C(C)C)nn3-c3ccc(C)cc3)c3ccccc23)n1 [Example 32, N-(2-hydroxyethyl)-3-((4-((4-(3-(3-isopropyl-1-(p-tolyl)-1H-pyrazol-5-yl)ureido)naphthalen-1-yl)oxy)pyrimidin-2-yl)amino)-4-methoxybenzamide]
IC50 [2]: 86.7 nM | EC50 [3]: 3.1 nM | IC50 (Syk): 152 nM | IC50 (cSrc): < 2 nM | Cell viability at time point in d-U937 cells, 4 h (d-U937 cells): −ve (−ve and +ve indicate that the value is below and above respectively, the no significant effect threshold, defined as 30% inhibition at 1 μg/mL at the time point indicated) | Cell viability at time point in d-U937 cells, 24 h (d-U937 cells): −ve (−ve and +ve indicate that the value is below and above respectively, the no significant effect threshold, defined as 30% inhibition at 1 μg/mL at the time point indicated) | IC50 [4]: 17.1 nM | IC50 (GSK3α [5]): > 14600 nM
